Structures can show the parent of a compound that is named as a salt.
Legend:
[1] = tested on: Female Hartley guinea pigs; test: Suppression of urinary output in a guinea pig model of water-loaded polyuria; type: in vivo; settings: oral, total urinary output up to 3 hours after water load, relative to vehicle group
Experimental: The water-loaded polyuria model, commonly used as a model for polyuria, was used to evaluate the inhibitory effect of the test compounds on urinary output in the following manner. Female Hartley guinea pigs (Japan SLC Co., Ltd.) were acclimated in a metabolic cage (Natsume Seisakusho Co., Ltd.) in a fasted condition from the evening of one day before the test. On the following day, 20 mL/kg of distilled water was administered orally as a water load, and then the guinea pigs were placed back in the metabolic cage and the total urinary output up to 3 hours after the water load was downloaded into a personal computer via an electronic balance (GX-200, A&D Corporation) and a data collection and analysis system (PowerLab®, ADInstruments), and then analyzed using analyzing software (LabChart®, ADInstruments). Test compounds dissolved in 0.5% methylcellulose solution (vehicle) or vehicle only were administered orally immediately before water loading depending on the kinetics of the compound. Based on the total urinary output at 3 hours after administration of the test compound and vehicle groups, the percentage inhibition of urinary output of the test compound group (%) was calculated relative to the urinary output of the vehicle group.

human A549 cells = test: Inhibition test of PGE2 production using human A549 cells; type: cell-based; settings: IL-1β stimulated A549 cells, 24 h, PGE2 by HTRF, read-out: A549 cell inhibition of PGE2 production IC50
Summary of the method: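 A549 cells were preincubated 60 min with compound in RPMI/3% FBS (0.1% DMSO final), then stimulated with IL-1β (5 ng/well) for 24 h at 37°C. PGE2 was measured by HTRF and PGF2a by EIA; activity was normalized to stimulated minus unstimulated controls, and IC50 derived.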

human mPGES-1 = human mPGES-1 (Homo sapiens (Human), UniProt O14684); test: mPGES-1 inhibitory activity test; type: biochemical; settings: for IC50: microsomes of CHO-K1 cells expressing human mPGES-1, PGH2 1 μM, PGE2 by HTRF, read-out: mPGES-1 inhibition (IC50 nM); for inhibition at 0.01 µM: 10 nM test compound; for inhibition at 0.1 µM: 100 nM test compound
Sequence of human mPGES-1 (O14684 whole entry): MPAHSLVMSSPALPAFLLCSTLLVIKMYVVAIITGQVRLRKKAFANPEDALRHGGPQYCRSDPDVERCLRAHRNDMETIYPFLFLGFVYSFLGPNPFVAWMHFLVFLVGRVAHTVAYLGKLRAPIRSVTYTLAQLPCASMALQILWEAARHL
Summary of the method: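 PGE2 formation was quantified by HTRF and reported as percent inhibition at 10 and 100 nM compound or as IC50. The 60-second reaction at 4° C used 1 μM PGH2, after a 20-minute 4° C preincubation of compound (1% DMSO final) with glutathione-supplemented (2.5 mM, pH 7.4) microsomes. The microsomes were from transiently transfected CHO-K1 cells expressing human mPGES-1.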

With `CC(C)(C)C(=O)NCc1ccc(Cl)c(C(=O)Nc2cccc3c2cnn3-c2ccc(C3CC3)nc2)c1.Cl` [Example 69, 2-Chloro-N-[1-(6-cyclopropylpyridin-3-yl)-1H-indazol-4-yl]-5-{[(2,2-dimethylpropanoyl)amino]methyl}benzamide hydrochloride] the “Suppression (%) of urinary output” value [1] was 57.8%, the IC50 (human A549 cells) was 2.1 nM and the IC50 (human mPGES-1) was 3.8 nM.
`COc1ccc(-n2ncc3c(NC(=O)c4cc(CNC(=O)C(C)(C)C)ccc4C(F)(F)F)cccc32)cn1` [Example 276, 5-{[(2,2-Dimethylpropanoyl)amino]methyl}-N-[1-(6-methoxypyridin-3-yl)-1H-indazol-4-yl]-2-(trifluoromethyl)benzamide] was tested, and the “Suppression (%) of urinary output” value [1] was 35.1%, the IC50 (human A549 cells) was 3 nM and the inhibition at 0.01 µM (human mPGES-1) was 68%. For the same compound, the inhibition at 0.1 µM (human mPGES-1) was 94%.
In the case of `CC(C)(C)C(=O)NCc1ccc(Cl)c(C(=O)Nc2cccc3c2cnn3-c2ccnc(C3CC3)c2)c1.Cl` [Example 70, 2-Chloro-N-[1-(2-cyclopropylpyridin-4-yl)-1H-indazol-4-yl]-5-{[(2,2-dimethylpropanoyl)amino]methyl}benzamide hydrochloride], the “Suppression (%) of urinary output” value [1] is reported as 25.1%, the IC50 (human A549 cells) is reported as 1 nM and the IC50 (human mPGES-1) is reported as 4.3 nM.
In the case of `Cc1ccc(-n2ncc3c(NC(=O)c4cc(CNC(=O)C(C)(C)C)ccc4C(F)(F)F)cccc32)cn1.Cl` [Example 88, 5-{[(2,2-Dimethylpropanoyl)amino]methyl}-N-[1-(6-methylpyridin-3-yl)-1H-indazol-4-yl]-2-(trifluoromethyl)benzamide hydrochloride], the “Suppression (%) of urinary output” value [1] is reported as 34.5%, the IC50 (human A549 cells) is reported as 68.2 nM and the IC50 (human mPGES-1) is reported as 1.5 nM.
With `Cc1ccc(-n2ncc3c(NC(=O)c4cc(CNC(=O)C(C)(C)C)ccc4Cl)cccc32)nn1` [Example 59, 2-Chloro-5-{[(2,2-dimethylpropanoyl)amino]methyl}-N-[1-(6-methylpyridazin-3-yl)-1H-indazol-4-yl]benzamide] the “Suppression (%) of urinary output” value [1] was 21.2%, the IC50 (human A549 cells) was 24.4 nM and the IC50 (human mPGES-1) was 34.2 nM.
For `CC(C)(CO)C(=O)NCc1ccc(Cl)c(C(=O)Nc2cccc3c2cnn3-c2cccc(OC(F)(F)F)c2)c1` [Example 125, 2-Chloro-5-{[(3-hydroxy-2,2-dimethylpropanoyl)amino]methyl}-N-{1-[3-(trifluoromethoxy)phenyl]-1H-indazol-4-yl}benzamide], the “Suppression (%) of urinary output” value [1] was 58.0%, the IC50 (human A549 cells) was 3.5 nM and the inhibition at 0.01 µM (human mPGES-1) was 62%.
With `COc1cc(-n2ncc3c(NC(=O)c4cc(CNS(=O)(=O)C5CC5)ccc4Cl)cccc32)ccn1` [Example 165, 2-Chloro-5-{[(cyclopropylsulfonyl)amino]methyl}-N-[1-(2-methoxypyridin-4-yl)-1H-indazol-4-yl]benzamide] the IC50 (human A549 cells) was 8.6 nM, the inhibition at 0.01 µM (human mPGES-1) was 80% and the inhibition at 0.1 µM (human mPGES-1) was 96%.
Work on `Cc1cc(-n2ncc3c(NC(=O)c4cc(CNC(=O)C5CCCC5)ccc4Cl)cccc32)cc(C)n1` [Example 278, 2-Chloro-5-{[(cyclopentylcarbonyl)amino]methyl}-N-[1-(2,6-dimethylpyridin-4-yl)-1H-indazol-4-yl]benzamide] yielded an IC50 (human A549 cells) of 3.1 nM, an inhibition at 0.01 µM (human mPGES-1) of 72% and an inhibition at 0.1 µM (human mPGES-1) of 90%.
Compound `Cc1ccc(-n2ncc3c(NC(=O)c4cc(CNC(=O)C5(C(F)(F)F)CC5)ccc4Cl)cccc32)cc1C(F)(F)F` [Example 256, 2-Chloro-N-{1-[4-methyl-3-(trifluoromethyl)phenyl]-1H-indazol-4-yl}-5-[({[1-(trifluoromethyl)cyclopropyl]carbonyl}amino)methyl]benzamide] has an IC50 (human A549 cells) of 0.3 nM, an inhibition at 0.01 µM (human mPGES-1) of 88% and an inhibition at 0.1 µM (human mPGES-1) of 98%.
Work on `Cc1cc(-n2ncc3c(NC(=O)c4cc(CNC(=O)C5CCCC5)ccc4Cl)cccc32)ccn1` [Example 235, 2-Chloro-5-{[(cyclopentylcarbonyl)amino]methyl}-N-[1-(2-methylpyridin-4-yl)-1H-indazol-4-yl]benzamide] yielded an IC50 (human A549 cells) of 6.1 nM, an inhibition at 0.01 µM (human mPGES-1) of 53% and an inhibition at 0.1 µM (human mPGES-1) of 88%.
Compound `O=C(Nc1cccc2c1cnn2-c1ccc(C(F)(F)F)cc1)c1cc(CNC(=O)C2CCCO2)ccc1Cl` (centres unmarked) [Example 33, N-[4-chloro-3-({1-[4-(trifluoromethyl)phenyl]-1H-indazol-4-yl}carbamoyl)benzyl]-tetrahydrofuran-2-carboxamide] has an IC50 (human A549 cells) of 41.4 nM and an IC50 (human mPGES-1) of 18 nM.
`COCC(=O)NCc1ccc(Cl)c(C(=O)Nc2cccc3c2cnn3-c2ccc(C(F)(F)F)cc2)c1` [Example 21, 2-Chloro-5-{[(methoxyacetyl)amino]methyl}-N-{1-[4-(trifluoromethyl)phenyl]-1H-indazol-4-yl}benzamide] was tested, and the IC50 (human A549 cells) was 68 nM and the IC50 (human mPGES-1) was 3.8 nM.
`Cc1ccc(-n2ncc3c(NC(=O)c4cc(CNC(=O)C5CC5)ccc4Cl)cccc32)cn1` [Example 10, 2-Chloro-5-{[(cvclopropylcarbonyl)amino]methyl}-N-[1-(6-methylpyridin-3-yl)-1H-indazol-4-yl]benzamide hydrochloride] was tested, and the IC50 (human A549 cells) was 31.2 nM and the IC50 (human mPGES-1) was 10 nM.
For `CC(C)(C)C(=O)NCc1ccc(Cl)c(C(=O)Nc2cccc3c2cnn3-c2ccc(C(C)(C)F)nc2)c1` [Example 85, 2-Chloro-5-{[(2,2-dimethylpropanoyl)amino]methyl}-N-{1-[6-(2-fluoropropan-2-yl)pyridin-3-yl]-1H-indazol-4-yl}benzamide], the IC50 (human A549 cells) was 6 nM and the IC50 (human mPGES-1) was 8.6 nM.
In the case of `Cc1ccccc1-n1ncc2c(NC(=O)c3cc(CNC(=O)C4CC4)ccc3Cl)cccc21` [Example 9, 2-Chloro-5-{[(cyclopropylcarbonyl)amino]methyl}-N-[1-(2-methylphenyl)-1H-indazol-4-yl]benzamide], the IC50 (human A549 cells) is reported as 4.1 nM and the IC50 (human mPGES-1) is reported as 2.2 nM.
With `O=C(Nc1cccc2c1cnn2-c1cccc(C(F)(F)F)c1)c1cc(CNC(=O)C2(O)CC2)ccc1Cl` [Example 221, 2-Chloro-5-({[(1-hydroxycyclopropyl)carbonyl]amino}methyl)-N-{1-[3-(trifluoromethyl)phenyl]-1H-indazol-4-yl}benzamide] the IC50 (human A549 cells) was 2.6 nM, the inhibition at 0.01 µM (human mPGES-1) was 65% and the inhibition at 0.1 µM (human mPGES-1) was 100%.
In the case of `CC(C)(CO)C(=O)NCc1ccc(Cl)c(C(=O)Nc2cccc3c2cnn3-c2ccc(C(F)(F)F)cc2)c1` [Example 28, 2-Chloro-5-{[(3-hydroxy-2,2-dimethylpropanoyl)amino]methyl}-N-{1-[4-(trifluoromethyl)phenyl]-1H-indazol-4-yl}benzamide], the IC50 (human A549 cells) is reported as 5.8 nM and the IC50 (human mPGES-1) is reported as 1.9 nM.
Compound `Cc1cccc(-n2ncc3c(NC(=O)c4cc(CNC(=O)C5CC5)ccc4Cl)cccc32)c1` [Example 7, 2-Chloro-5-{[(cyclopropylcarbonyl)amino]methyl}-N-[1-(3-methylphenyl)-1H-indazol-4-yl]benzamide] has an IC50 (human A549 cells) of 1.6 nM and an IC50 (human mPGES-1) of 1.8 nM.
Work on `Cc1ccc(-n2ncc3c(NC(=O)c4cc(CNC(=O)C5(C(F)(F)F)CC5)ccc4Cl)cccc32)cc1Cl` [Example 129, 2-Chloro-N-[1-(3-chloro-4-methylphenyl)-1H-indazol-4-yl]-5-[({[1-(trifluoromethyl)cyclopropyl]carbonyl}amino)methyl]benzamide] yielded an IC50 (human A549 cells) of 1.2 nM and an inhibition at 0.01 µM (human mPGES-1) of 67%.
